In PMC10197885, “Anomanolide C suppresses tumor progression and metastasis by ubiquitinating GPX4-driven autophagy-dependent ferroptosis in triple negative breast cancer” (International Journal of Biological Sciences, 2023):

Biological target: T1, GPX4 (Homo sapiens, UniProt P36969)
T1 sequence (P36969 28-197): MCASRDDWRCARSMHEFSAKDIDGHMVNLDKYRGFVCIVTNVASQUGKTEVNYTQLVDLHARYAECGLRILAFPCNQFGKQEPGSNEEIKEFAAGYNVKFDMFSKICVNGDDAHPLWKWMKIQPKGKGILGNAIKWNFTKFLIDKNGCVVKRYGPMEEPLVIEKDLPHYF
Assay: SPR (Biacore, GPX4 coupled to CM5 chip); supported by CETSA in MDA-MB-231 cells
Assay type: binding
Text: SPR (Biacore, GPX4 coupled to CM5 chip); supported by CETSA in MDA-MB-231 cells on GPX4 | AC binds to GPX4 protein as shown by surface plasmon resonance (SPR) measurements.

C[C@@]12CC([C@@]3(O)[C@H](O)C[C@H]4[C@@H]5C[C@H]6O[C@]67[C@@H](O)C=CC(=O)[C@]7(C)[C@H]5CC[C@@]43C)[C@@H](C1)OC(=O)[C@]2(C)O (stereo partly shown) [AC, Anomanolide C]
Kd: ~24 µM
